# Data from patent US11246936B2, “Compositions and methods using rebaudioside X to provide sweetness enhancement” (The Coca-Cola Company, priority 2013, dated 2022).
# How the values were obtained:
# human sense of taste = assay: Sweetness recognition threshold; assay type: in vivo
# Source text: The term “sweetness recognition threshold,” as generally used herein, is the lowest known concentration of a sweet compound that is perceivable by the human sense of taste. As such, rebaudioside X enhances or potentiates the sweet taste of sweeteners without providing any noticeable sweet taste by itself when present below its sweetness recognition threshold concentration. However, rebaudioside X may provide a detectable sweet taste at concentrations above its sweetness recognition threshold. The sweetness recognition threshold of rebaudioside X is about 20 to about 30 ppm.
# The term “sucrose equivalence,” as used herein, refers to the sweetness of a composition containing at least one […] sweetener against a sucrose reference. Typically, taste panelists are trained to detect sweetness of reference sucrose solutions containing between 1-15% sucrose (w/v). Other non-sucrose sweeteners are then tasted at a series of dilutions to determine the concentration of the non-sucrose, i.e. rebaudioside X, sweetener that is as sweet (i.e. isosweet) to a given percent sucrose reference.
# panelists [1] = assay: Taste evaluation of lemon-lime carbonated soft drinks against HFCS-55 controls; assay type: in vivo, human
# Protocol: Lemon-lime carbonated soft drinks (CSD) were made by dissolving all ingredients in an amount of water sufficient to make a syrup from which finished beverages were made by adding 5.5 parts carbonated water to 1 part syrup (beverage carbonation target of 3.7 volumes of CO2). Products were prepared with the ingredients provided in Table 8: The beverages were aged for seven days at room temperature and then cooled at 4° C. before tasting. Four panelists evaluated the beverages. Bottles were removed from the refrigerator and about 20 ml of beverage poured in 2 oz-plastic cups. Mineral water was given for palate rinsing before tasting and between tasting different samples.
# panelists [2] = assay: Taste evaluation of sweetness against sucrose reference beverages (water and citric acid buffer); assay type: in vivo, human
# Protocol: Solutions were made by dissolving all ingredients in treated water. For citric acid buffer, citric acid and potassium citrate were added in a sufficient amount to bring the pH to 3.2. Finished products were filled in 300 ml-glass bottles and stored in the refrigerator. The Rebaudioside X used was 95% pure and obtained from Pure Circle. Beverages were kept in the refrigerator overnight and tasted cold the following day. Two panelists evaluated the beverages. Bottles were removed from the refrigerator and about 50 ml of the beverage was poured in 4 oz-plastic cups. Taste test were conducted in two sessions for each type of solution: water and citric acid buffer. In the first session, the sweetness level of the beverages containing 20 ppm and 30 ppm rebaudioside X were determined against the 0.5%, 1%, and 1.5% sucrose beverages. In the second session, the sweetness level of the beverages containing 7% sucrose and either 20 ppm or 30 ppm rebaudioside X were determined against the 7%, 8%, 9%, and 10% sucrose beverages. Panelists were given mineral water for rinsing before tasting and between tasting different samples. Unsalted crackers were also given to panelists to eat followed by rinsing their mouth with mineral water before tasting the next sample.
compound,measurement,setting,value
"C=C1C[C@@]23CC[C@H]4[C@@](C)(CCC[C@@]4(C)C(=O)O[C@@H]4O[C@H](CO)[C@@H](O)[C@H](O[C@@H]5O[C@H](CO)[C@@H](O)[C@H](O)[C@H]5O)[C@H]4O[C@@H]4O[C@H](CO)[C@@H](O)[C@H](O)[C@H]4O)[C@@H]2CC[C@]1(O[C@@H]1O[C@H](CO)[C@@H](O)[C@H](O[C@@H]2O[C@H](CO)[C@@H](O)[C@H](O)[C@H]2O)[C@H]1O[C@@H]1O[C@H](CO)[C@@H](O)[C@H](O)[C@H]1O)C3 [rebaudioside X, 13-[(2-O-β-D-glucopyranosyl-3-O-β-D-glucopyranosyl-β-D-glucopyranosyl)oxy] ent kaur-16-en-19-oic acid-[(2-O-β-D-glucopyranosyl-3-O-β-D-glucopyranosyl-β-D-glucopyranosyl) ester]]",sucrose equivalence provided at the sweetness recognition threshold,human sense of taste; at about 20-30 ppm rebaudioside X,1.0-1.5%
same,sweetness recognition threshold,human sense of taste; lowest concentration perceivable by the human sense of taste,20-30 ppm
same,overall sweetness similar to HFCS-55 beverage,"panelists [1]; 8% HFCS-55 and 30 ppm rebaudioside X in lemon lime CSD, four panelists, 10% HFCS-55 same sweetness as 10% sucrose",about 10 % HFCS-55
same,sweetness enhancement,panelists [1]; 30 ppm rebaudioside X added to a beverage containing 8% HFCS-55 (same sweetness as 8% sucrose),about 2.0%
same,overall sweetness similar to sucrose beverage,"panelists [2]; 7% sucrose and 20 ppm rebaudioside X in water or citric acid buffer, between the 9% and 10% sucrose beverage (average)",~9.5 % sucrose
same,overall sweetness similar to sucrose beverage,panelists [2]; 7% sucrose and 30 ppm rebaudioside X in either water or citric acid buffer,~10 % sucrose
same,sweetness enhancement,panelists [2]; 20 and 30 ppm rebaudioside X added to a beverage containing 7% sucrose,about 1.5%
same,increase in isosweetness provided by rebaudioside X,panelists [2]; 20 ppm rebaudioside X in 7.0% (w/v) sucrose beverage,2.5 % (w/v)
same,overall sweetness similar to sucrose beverage,"panelists [2]; 20 ppm rebaudioside X in either water or citric acid buffer (pH 3.2), two panelists, tasted cold",~1 % sucrose
same,overall sweetness similar to sucrose beverage,"panelists [2]; 30 ppm rebaudioside X in either water or citric acid buffer (pH 3.2), two panelists, tasted cold",~1.5 % sucrose
same,isosweet sucrose solution,panelists [2]; beverage containing 7.0% (w/v) sucrose and 20 ppm rebaudioside X,9.5 % (w/v)
same,isosweet sucrose solution,"panelists [2]; solution containing 20 ppm rebaudioside X, no other sweetener",1.0 % (w/v)
